Results on 1 compound are retold here after ChEMBL document CHEMBL3525902, “In vitro metabolism of oxymetazoline: evidence for bioactivation to a reactive metabolite” (Drug Metab Dispos, 2011).

For one data set, the target named is T1, Cytochrome P450 1A2 (Homo sapiens, UniProt P05177).
T1 sequence (P05177 whole entry): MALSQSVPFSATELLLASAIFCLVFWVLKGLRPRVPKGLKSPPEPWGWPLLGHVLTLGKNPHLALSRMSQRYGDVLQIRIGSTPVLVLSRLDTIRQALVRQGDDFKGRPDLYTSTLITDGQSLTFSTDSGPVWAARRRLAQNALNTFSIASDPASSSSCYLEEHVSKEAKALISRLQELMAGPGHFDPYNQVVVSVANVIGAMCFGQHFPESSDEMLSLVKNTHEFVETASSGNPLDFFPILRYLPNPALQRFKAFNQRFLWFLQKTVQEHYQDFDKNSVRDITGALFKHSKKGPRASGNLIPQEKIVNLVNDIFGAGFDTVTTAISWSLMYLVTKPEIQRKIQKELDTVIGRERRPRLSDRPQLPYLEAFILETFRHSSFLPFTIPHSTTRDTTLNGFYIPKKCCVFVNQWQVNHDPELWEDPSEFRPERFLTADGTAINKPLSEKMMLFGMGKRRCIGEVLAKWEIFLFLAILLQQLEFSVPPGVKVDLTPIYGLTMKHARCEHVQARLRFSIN
The data set can be described thus: Activity of human recombinant CYP1A2 assessed as metabolite formation at 50 uM in presence of NADPH by LC-MS/MS method. In kind it is ADME. The note with it: recombinant enzyme.

The next data set has as its target T2, Cytochrome P450 2C8 (Homo sapiens, UniProt P10632).
T2 sequence (P10632 whole entry): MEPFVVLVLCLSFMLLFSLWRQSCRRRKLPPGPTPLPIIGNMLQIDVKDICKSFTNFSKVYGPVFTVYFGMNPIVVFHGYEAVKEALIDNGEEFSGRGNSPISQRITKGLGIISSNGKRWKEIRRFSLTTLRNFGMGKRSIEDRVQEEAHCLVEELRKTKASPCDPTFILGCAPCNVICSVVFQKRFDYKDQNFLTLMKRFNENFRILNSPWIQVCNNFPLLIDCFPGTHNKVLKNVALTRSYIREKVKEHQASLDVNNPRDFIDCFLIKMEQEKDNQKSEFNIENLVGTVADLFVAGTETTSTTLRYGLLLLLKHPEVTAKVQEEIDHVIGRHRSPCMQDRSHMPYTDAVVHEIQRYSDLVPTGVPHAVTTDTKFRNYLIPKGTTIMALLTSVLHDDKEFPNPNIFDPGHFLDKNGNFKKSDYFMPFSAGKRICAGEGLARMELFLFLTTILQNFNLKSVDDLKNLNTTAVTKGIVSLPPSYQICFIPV
The data set can be described thus: Activity of human recombinant CYP2C8 assessed as metabolite formation at 50 uM in presence of NADPH by LC-MS/MS method. The note with it: recombinant enzyme. In kind it is ADME.

The target in a further data set is Cytochrome P450 2C9 (Homo sapiens, UniProt P11712). Put plainly: Activity of human recombinant CYP2C9 assessed as metabolite formation at 50 uM in presence of NADPH by LC-MS/MS method. The note with it: recombinant enzyme. In kind it is ADME.
Chain of Cytochrome P450 2C9 (P11712 whole entry): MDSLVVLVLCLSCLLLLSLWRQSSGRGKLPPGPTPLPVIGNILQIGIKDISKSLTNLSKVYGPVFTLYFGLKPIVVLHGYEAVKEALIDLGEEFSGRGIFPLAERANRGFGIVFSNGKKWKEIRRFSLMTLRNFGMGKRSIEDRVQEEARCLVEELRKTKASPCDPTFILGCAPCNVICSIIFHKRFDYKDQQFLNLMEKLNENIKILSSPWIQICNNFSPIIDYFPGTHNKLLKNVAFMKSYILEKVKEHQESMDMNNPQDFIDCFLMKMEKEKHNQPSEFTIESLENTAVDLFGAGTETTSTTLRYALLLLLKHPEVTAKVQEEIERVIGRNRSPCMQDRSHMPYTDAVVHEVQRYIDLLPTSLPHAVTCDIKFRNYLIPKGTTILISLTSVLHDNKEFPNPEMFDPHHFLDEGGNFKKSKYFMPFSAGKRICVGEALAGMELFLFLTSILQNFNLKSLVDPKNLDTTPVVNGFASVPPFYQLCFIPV
The next data set deals with T3, Cytochrome P450 2C18 (Homo sapiens, UniProt P33260).
T3 sequence (P33260 whole entry): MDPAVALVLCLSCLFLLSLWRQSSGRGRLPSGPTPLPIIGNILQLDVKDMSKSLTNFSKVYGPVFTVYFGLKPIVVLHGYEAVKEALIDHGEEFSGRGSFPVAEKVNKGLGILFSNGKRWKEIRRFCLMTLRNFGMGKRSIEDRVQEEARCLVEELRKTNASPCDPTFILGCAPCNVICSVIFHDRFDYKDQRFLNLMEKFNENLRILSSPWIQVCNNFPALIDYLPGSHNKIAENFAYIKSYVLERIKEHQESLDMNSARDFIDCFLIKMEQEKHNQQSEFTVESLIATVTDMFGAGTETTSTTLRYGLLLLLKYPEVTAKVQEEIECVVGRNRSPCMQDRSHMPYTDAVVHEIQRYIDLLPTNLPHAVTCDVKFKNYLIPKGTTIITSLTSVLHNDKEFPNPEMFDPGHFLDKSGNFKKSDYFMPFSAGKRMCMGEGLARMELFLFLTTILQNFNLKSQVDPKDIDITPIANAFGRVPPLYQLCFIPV
The data set can be described thus: Activity of human recombinant CYP2C18 assessed as metabolite formation at 50 uM in presence of NADPH by LC-MS/MS method. In kind it is ADME. Particulars: recombinant enzyme.

The target in another data set is Cytochrome P450 3A4 (Homo sapiens, UniProt P08684). Put plainly: Activity of human recombinant CYP3A4 assessed as metabolite formation at 50 uM in presence of NADPH by LC-MS/MS method. In kind it is ADME. The note with it: recombinant enzyme.
Chain of Cytochrome P450 3A4 (P08684 whole entry): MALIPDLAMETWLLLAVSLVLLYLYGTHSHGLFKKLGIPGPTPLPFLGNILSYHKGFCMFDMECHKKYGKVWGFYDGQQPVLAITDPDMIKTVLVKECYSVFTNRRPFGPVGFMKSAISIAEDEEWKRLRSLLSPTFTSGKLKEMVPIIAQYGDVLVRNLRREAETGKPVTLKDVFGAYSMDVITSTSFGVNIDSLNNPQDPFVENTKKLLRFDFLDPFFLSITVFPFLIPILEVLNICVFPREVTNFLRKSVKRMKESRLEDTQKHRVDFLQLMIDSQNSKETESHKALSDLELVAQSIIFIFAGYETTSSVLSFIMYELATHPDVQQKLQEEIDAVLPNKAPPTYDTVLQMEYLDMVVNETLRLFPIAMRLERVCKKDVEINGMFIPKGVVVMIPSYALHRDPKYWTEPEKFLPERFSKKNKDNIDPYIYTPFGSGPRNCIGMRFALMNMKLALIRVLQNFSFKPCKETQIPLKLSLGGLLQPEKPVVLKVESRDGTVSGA
The nature of data set [1]: Drug metabolism in NADPH supplemented rabbit liver S9 fraction assessed as 3-((1H-imidazol-2-yl)methyl)-6-tert-butyl-2,4-dimethylphenol formation at 50 uM in presence of N-acetyl cysteine by LC-MS/MS method. In kind it is ADME, subcellular, Oryctolagus cuniculus. Particulars: s9, 50 µM.
Data set [2] is described as follows: Drug metabolism in NADPH supplemented rabbit liver microsomes fraction assessed as 3-((1H-imidazol-2-yl)methyl)-6-tert-butyl-2,4-dimethylphenol formation at 50 uM after 1 hr by LC-MS/MS method. In kind it is ADME, Oryctolagus cuniculus. Background: Microsomes from liver hold many membrane-bound enzymes, among them those of drug oxidation.
A short description of data set [3]: Drug metabolism in NADPH supplemented rabbit liver microsomes fraction assessed as 3-((1H-imidazol-2-yl)methyl)-6-(1-hydroxy-2-methylpropan-2-yl)-2,4-dimethylphenol formation at 50 uM after 1 hr by LC-MS/MS method. In kind it is ADME, Oryctolagus cuniculus.
Data set [4] deals with Liver microsome. The data set can be described thus: Drug metabolism in NADPH supplemented rat liver microsomes fraction assessed as 3-((1H-imidazol-2-yl)methyl)-6-tert-butyl-2,4-dimethylphenol formation at 50 uM after 1 hr by LC-MS/MS method. In kind it is ADME.
In data set [5] the test system is Liver microsome. The data set can be described thus: Drug metabolism in NADPH supplemented human liver microsomes fraction assessed as 3-((4,5-dihydro-1H-imidazol-2-yl)methyl)-6-(1-hydroxy-2-methylpropan-2-yl)-2,4-dimethylphenol formation at 50 uM after 1 hr by LC-MS/MS method. In kind it is ADME.
Data set [6] relates to Liver microsome. Put plainly: Drug metabolism in NADPH supplemented human liver microsomes fraction assessed as 3-((1H-imidazol-2-yl)methyl)-6-tert-butyl-2,4-dimethylphenol formation at 50 uM after 1 hr by LC-MS/MS method. In kind it is ADME.
The test system of data set [7] is Liver microsome. Put plainly: Drug metabolism in NADPH supplemented human liver microsomes fraction assessed as 3-((1H-imidazol-2-yl)methyl)-6-(1-hydroxy-2-methylpropan-2-yl)-2,4-dimethylphenol formation at 50 uM after 1 hr by LC-MS/MS method. In kind it is ADME.
Data set [8] in a line: Drug metabolism in NADPH supplemented human liver S9 fraction assessed as 3-((4,5-dihydro-1H-imidazol-2-yl)methyl)-6-(1-hydroxy-2-methylpropan-2-yl)-2,4-dimethylphenol formation at 50 uM in presence of glutathione by LC-MS/MS method. In kind it is ADME, subcellular. Particulars: s9, 50 µM.
Data set [9] is described as follows: Retention time of the compound at 50 uM by LC-MS/MS method. In kind it is physicochemical.

Regarding `Cc1cc(C(C)(C)C)c(O)c(C)c1CC1=NCCN1` [OXYMETAZOLINE], the Drug metabolism entry at Cytochrome P450 1A2 is recorded as “metabolite_not_detected”; at Cytochrome P450 2C8, “metabolite_not_detected”; on Cytochrome P450 2C9 it was “metabolite_not_detected”; at Cytochrome P450 2C18 it was “metabolite_not_detected”; at Cytochrome P450 3A4 it was “metabolite_not_detected”; in data set [1] it was “metabolite_detected”. For the same compound, the Drug metabolism result (in [2]; in data set [3]; with Liver microsome [4]; in the data set on Liver microsome [5]; in the data set on Liver microsome [6]; in the data set on Liver microsome [7]) was “metabolite_detected” throughout. The Drug metabolism entry in data set [8] is “metabolite_detected”. Further, the Retention_time in data set [9] is reported as 12.2 min.
